Measurements reported in patent publication US20240409585A1, “MACROCYCLIC IMMUNOMODULATORS” (priority 2021, published 2024).
Numbered stars: 1 amine (or outer) side, 2 acyl side, 3 side chain; on linkers, the order of the positions; unused ones are H or OH. Bridge positions count the residues as written; N and C are the ends. Square brackets hold non-standard residues; d marks the D form. Peptide text beside a SMILES is read from it. * marks the point of attachment. ξ: configuration not given here. Ala(piperidin-4-yl) = O=C([C@H](CC1CCN([*:3])CC1)N[*:1])[*:2]; Ala(morpholin-4-yl) = N[C@@H](CN1CCOCC1)C(=O)O; Phe(4-COOH) = N[C@@H](Cc1ccc(C(=O)O)cc1)C(=O)O; Bip = N[C@@H](Cc1ccc(-c2ccccc2)cc1)C(=O)O; Morpholine(3S-CO) = O=C(O)[C@@H]1COCCN1; Phe(3-F) = N[C@@H](Cc1cccc(F)c1)C(=O)O; Phe(3-Me) = Cc1cccc(C[C@H](N)C(=O)O)c1; NMeY = CN[C@@H](Cc1ccc(O)cc1)C(=O)O; Val(3-OH) = CC(C)(O)[C@H](N)C(=O)O; 4Pal = N[C@@H](Cc1ccncc1)C(=O)O; Cha = N[C@@H](CC1CCCCC1)C(=O)O; Ile(3ξ) = CCC(C)[C@H](N)C(=O)O; Thr(3ξ) = CC(O)[C@H](N)C(=O)O; hLeu = CC(C)CC[C@H](N)C(=O)O; NMeS = CN[C@@H](CO)C(=O)O; Carboxymethyl = O=C(O)C*; NMeA = CN[C@@H](C)C(=O)O; Orn = NCCC[C@H](N)C(=O)O; Dab = NCC[C@H](N)C(=O)O

target: T1, PE-labeled human PD-L1-Ig binding to Jurkat cell line over-expressing human PD-1 (Jurkat-PD-1) (Homo sapiens, UniProt Q15116); assay: Jurkat-PD-1 Cell Binding High-Content Screening Assay (CBA): Method 1; settings: Jurkat-hPD-1 cells, PE-labeled PD-L1-Ig 20 nM final; read-out: Jurkat HPDL1 PD1 IC50 (uM) (Method 1)
T1 construct: expressed in transfected cells; host or cells: Jurkat
T1 sequence (Q15116 25-288): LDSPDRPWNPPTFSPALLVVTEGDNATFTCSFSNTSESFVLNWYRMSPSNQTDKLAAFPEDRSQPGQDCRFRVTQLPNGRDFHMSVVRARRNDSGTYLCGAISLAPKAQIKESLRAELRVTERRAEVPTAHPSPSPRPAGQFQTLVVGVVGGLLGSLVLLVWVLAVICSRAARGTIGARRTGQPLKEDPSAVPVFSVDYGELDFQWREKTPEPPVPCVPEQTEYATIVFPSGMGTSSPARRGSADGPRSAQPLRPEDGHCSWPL

Compared with `CC(C)C[C@@H]1NC(=O)[C@H](Cc2c[nH]c3ccccc23)NC(=O)[C@H](CC(=O)O)NC(=O)[C@H](Cc2ccc(OCC(=O)O)cc2)NC(=O)[C@H](Cc2ccncc2)NC(=O)CSC[C@@H](C(=O)NCC(N)=O)NC(=O)[C@H](CO)NC(=O)[C@H](C(C)C)NC(=O)[C@H](CC(C)C)NC(=O)[C@H](CC(N)=O)NC(=O)[C@@H](CC(C)C)NC(=O)[C@H](C)N(C)C(=O)[C@H](C(C)C)NC(=O)[C@H](Cc2ccc(-c3ccccc3)cc2)NC1=O` [Compound 1551] ({CH2CO}-[4Pal]Y(Carboxymethyl)DWL[Bip]V[NMeA][dL]NLVSCG-NH2; thioether N-14), `CC(C)C[C@@H]1NC(=O)[C@H](CCN)NC(=O)[C@@H](CC(C)C)NC(=O)[C@H](C)N(C)C(=O)[C@H](CCCNC(=N)N)NC(=O)[C@H](Cc2ccc(-c3ccccc3)cc2)NC(=O)[C@H](C(C)C)NC(=O)[C@H](Cc2c[nH]c3ccccc23)NC(=O)[C@H](CC(=O)O)NC(=O)[C@H](Cc2ccc(O)cc2)NC(=O)[C@H](CC(N)=O)NC(=O)CSC[C@@H](C(=O)N[C@@H](C)C(N)=O)NC(=O)[C@H]([C@@H](C)O)NC(=O)[C@H](C(C)C)NC1=O` [Compound 1189] ({CH2CO}-NYDWV[Bip]R[NMeA][dL][Dab]LVTCA-NH2; thioether N-14) is 3-fold higher in IC50: 0.01 µM for the first, 0.03 µM for the second.

Going from `CCC(C)[C@@H]1NC(=O)[C@H](Cc2ccc(-c3ccccc3)cc2)NC(=O)[C@H](CC(C)C)NC(=O)[C@H](Cc2c[nH]c3ccccc23)NC(=O)[C@H](CC(=O)O)NC(=O)[C@H](Cc2ccc(C(=O)O)cc2)NC(=O)[C@H](Cc2ccc(OCC(=O)O)cc2)NC(=O)CSC[C@@H](C(=O)N[C@@H](CO)C(N)=O)NC(=O)[C@H]([C@@H](C)O)NC(=O)[C@H](C(C)C)NC(=O)[C@H](CC2CCCCC2)NC(=O)[C@H](CCN)NC(=O)[C@@H](CC(C)C)NC(=O)[C@H](C)N(C)C1=O` (stereo partly drawn) [Compound 1928] ({CH2CO}-Y(Carboxymethyl)[Phe(4-COOH)]DWL[Bip][Ile(3ξ)][NMeA][dL][Dab][Cha]VTCS-NH2; thioether N-14) to `CCC(C)[C@@H]1NC(=O)[C@H](Cc2ccc(-c3ccccc3)cc2)NC(=O)[C@H](C(C)C)NC(=O)[C@H](Cc2c[nH]c3ccccc23)NC(=O)[C@H](CC(=O)O)NC(=O)[C@H](Cc2ccc(O)cc2)NC(=O)[C@H](CC2CCNCC2)NC(=O)CSC[C@@H](C(=O)N[C@@H](C)C(N)=O)NC(=O)[C@H](C(C)O)NC(=O)[C@H](C(C)C)NC(=O)[C@H](CC2CCCCC2)NC(=O)[C@H](CCN)NC(=O)[C@@H](CC(C)C)NC(=O)[C@H](C)N(C)C1=O` (stereo partly drawn) [Compound 2043] ({CH2CO}-[Ala(piperidin-4-yl)]YDWV[Bip][Ile(3ξ)][NMeA][dL][Dab][Cha]V[Thr(3ξ)]CA-NH2; thioether N-14), the IC50 falls from 0.02 µM to 0.01 µM (2-fold).

Going from `Cc1cccc(C[C@@H]2NC(=O)[C@H](CC(=O)O)NC(=O)[C@H](Cc3ccc(OCC(=O)O)cc3)NC(=O)[C@H](Cc3ccncc3)NC(=O)CSC[C@@H](C(=O)N[C@@H](CCN)C(N)=O)NC(=O)[C@H](CO)NC(=O)[C@H](C(C)(C)O)NC(=O)[C@H](CC3CCCCC3)NC(=O)[C@H](CCN)NC(=O)[C@@H](CC(C)C)NC(=O)[C@H](Cc3ccc(O)cc3)N(C)C(=O)[C@H](Cc3ccc(OCC(=O)O)cc3)NC(=O)[C@H](Cc3ccc(-c4ccccc4)cc3)NC(=O)[C@H](Cc3ccc(OCC(=O)O)cc3)NC2=O)c1` [Compound 1835] ({CH2CO}-[4Pal]Y(Carboxymethyl)D[Phe(3-Me)]Y(Carboxymethyl)[Bip]Y(Carboxymethyl)[NMeY][dL][Dab][Cha][Val(3-OH)]SC[Dab]-NH2; thioether N-14) to `Cc1cccc(C[C@@H]2NC(=O)[C@H](CC(=O)O)NC(=O)[C@H](Cc3ccc(OCC(=O)O)cc3)NC(=O)[C@H](CN3CCOCC3)NC(=O)CSC[C@@H](C(=O)N[C@@H](CCN)C(N)=O)NC(=O)[C@H](CCCN)NC(=O)[C@H](C(C)C)NC(=O)[C@H](Cc3cccc(F)c3)NC(=O)[C@H](CCN)NC(=O)[C@@H](CC(C)C)NC(=O)[C@H](C)N(C)C(=O)[C@H](CCC(N)=O)NC(=O)[C@H](Cc3ccc(-c4ccccc4)cc3)NC(=O)[C@H](Cc3ccc(C(=O)O)cc3)NC2=O)c1` [Example 2294] ({CH2CO}-[Ala(morpholin-4-yl)]Y(Carboxymethyl)D[Phe(3-Me)][Phe(4-COOH)][Bip]Q[NMeA][dL][Dab][Phe(3-F)]V[Orn]C[Dab]-NH2; thioether N-14), the IC50 rises from 0.11 µM to 0.95 µM (8.6-fold).

Compared with `CC(C)C[C@@H]1NC(=O)[C@H](CCN)NC(=O)[C@@H](CC(C)C)NC(=O)[C@@H]2COCCN2C(=O)[C@H](C(C)C)NC(=O)[C@H](Cc2ccc(-c3ccccc3)cc2)NC(=O)[C@H](C(C)C)NC(=O)[C@H](Cc2c[nH]c3ccccc23)NC(=O)[C@H](CC(=O)O)NC(=O)[C@H](Cc2ccc(O)cc2)NC(=O)[C@H](CC(N)=O)NC(=O)CSC[C@@H](C(=O)N[C@@H](C)C(N)=O)NC(=O)[C@H]([C@@H](C)O)NC(=O)[C@H](C(C)C)NC1=O` [Compound 1367] ({CH2CO}-NYDWV[Bip]V[Morpholine(3S-CO)][dL][Dab]LVTCA-NH2; thioether N-14), `CC(C)C[C@@H]1NC(=O)[C@H](CCN)NC(=O)[C@@H](CC(C)C)NC(=O)[C@H](CO)N(C)C(=O)[C@H](C(C)C)NC(=O)[C@H](Cc2ccc(-c3ccccc3)cc2)NC(=O)[C@H](C(C)C)NC(=O)[C@H](Cc2c[nH]c3ccccc23)NC(=O)[C@H](CC(=O)O)NC(=O)[C@H](Cc2ccc(O)cc2)NC(=O)[C@H](CC(N)=O)NC(=O)CSC[C@@H](C(=O)N[C@@H](C)C(N)=O)NC(=O)[C@H]([C@@H](C)O)NC(=O)[C@H](C(C)C)NC1=O` [Compound 1370] ({CH2CO}-NYDWV[Bip]V[NMeS][dL][Dab]LVTCA-NH2; thioether N-14) is 39-fold lower in IC50: 0.39 µM for the first, 0.01 µM for the second. The second is the more potent here.

`CC(C)C[C@@H]1NC(=O)[C@H](CCCCN)NC(=O)[C@@H](CC(C)C)NC(=O)[C@H](C)N(C)C(=O)[C@H](CCCNC(=N)N)NC(=O)[C@H](Cc2ccc(-c3ccccc3)cc2)NC(=O)[C@H](C(C)C)NC(=O)[C@H](Cc2c[nH]c3ccccc23)NC(=O)[C@H](CC(=O)O)NC(=O)[C@H](Cc2ccc(O)cc2)NC(=O)[C@H](CC(N)=O)NC(=O)CSC[C@@H](C(=O)N[C@@H](C)C(N)=O)NC(=O)[C@H]([C@@H](C)O)NC(=O)[C@H](C(C)C)NC1=O` [Compound 1280] ({CH2CO}-NYDWV[Bip]R[NMeA][dL]KLVTCA-NH2; thioether N-14) and `CC(C)CC[C@@H]1NC(=O)[C@H](CCCNC(=N)N)NC(=O)[C@@H](CC(C)C)NC(=O)[C@H](C)N(C)C(=O)[C@H](CCCNC(=N)N)NC(=O)[C@H](Cc2ccc(-c3ccccc3)cc2)NC(=O)[C@H](C(C)C)NC(=O)[C@H](Cc2c[nH]c3ccccc23)NC(=O)[C@H](CC(=O)O)NC(=O)[C@H](Cc2ccc(O)cc2)NC(=O)[C@H](Cc2ccccc2)NC(=O)CSC[C@@H](C(=O)N[C@@H](C)C(N)=O)NC(=O)[C@H]([C@@H](C)O)NC(=O)[C@H](C(C)C)NC1=O` [Compound 1116] ({CH2CO}-FYDWV[Bip]R[NMeA][dL]R[hLeu]VTCA-NH2; thioether N-14) are within 1.5-fold of each other in IC50: 0.08 µM for the first, 0.06 µM for the second.
